In the supplement of paper PMC13380429:

Legend:
Details in all cases: 72 h
Caco-2 [1] = test: drug sensitivity score (DSS) for viability; higher = more toxic; extreme values may be limits of the assay
Vero E6 [2] = test: as above
Calu-3 [3] = test: as above
Caco-2 [4] = test: relative viability EC50 (midpoint between 100% and the lowest measured viability); higher = less toxic
Vero E6 [5] = test: as above
Calu-3 [6] = test: as above
Caco-2 [7] = test: cell viability relative to DMSO; higher = less toxic
Vero E6 [8] = test: as above
Calu-3 [9] = test: as above
HepG2 [10] = test: drug sensitivity score (DSS) for viability; higher = more toxic; extreme values may be limits of the assay
U2OS [11] = test: as above
U2OS [12] = test: relative viability EC50 (midpoint between 100% and the lowest measured viability); higher = less toxic
HepG2 [13] = test: cell viability relative to DMSO; higher = less toxic
U2OS [14] = test: as above
HepG2 [15] = test: relative viability EC50 (midpoint between 100% and the lowest measured viability); higher = less toxic

| SMILES | drug sensitivity score (Caco-2 [1]) | drug sensitivity score (Vero E6 [2]) | drug sensitivity score (Calu-3 [3]) | relative viability EC50 (Caco-2 [4]) [µM] | relative viability EC50 (Vero E6 [5]) [µM] | relative viability EC50 (Calu-3 [6]) [µM] | cell viability (Caco-2 [7]; 1 nM) [%] | cell viability (Caco-2 [7]; 10 nM) [%] | cell viability (Caco-2 [7]; 100 nM) [%] | cell viability (Caco-2 [7]; 1000 nM) [%] | cell viability (Caco-2 [7]; 10000 nM) [%] | cell viability (Vero E6 [8]; 1 nM) [%] | cell viability (Vero E6 [8]; 10 nM) [%] | cell viability (Vero E6 [8]; 100 nM) [%] | cell viability (Vero E6 [8]; 1000 nM) [%] | cell viability (Vero E6 [8]; 10000 nM) [%] | cell viability (Calu-3 [9]; 1 nM) [%] | cell viability (Calu-3 [9]; 10 nM) [%] | cell viability (Calu-3 [9]; 100 nM) [%] | cell viability (Calu-3 [9]; 1000 nM) [%] | cell viability (Calu-3 [9]; 10000 nM) [%] | drug sensitivity score (HepG2 [10]) | drug sensitivity score (U2OS [11]) | relative viability EC50 (U2OS [12]) [µM] | cell viability (HepG2 [13]; 1 nM) [%] | cell viability (HepG2 [13]; 10 nM) [%] | cell viability (HepG2 [13]; 100 nM) [%] | cell viability (HepG2 [13]; 1000 nM) [%] | cell viability (HepG2 [13]; 10000 nM) [%] | cell viability (U2OS [14]; 1 nM) [%] | cell viability (U2OS [14]; 10 nM) [%] | cell viability (U2OS [14]; 100 nM) [%] | cell viability (U2OS [14]; 1000 nM) [%] | cell viability (U2OS [14]; 10000 nM) [%] | relative viability EC50 (HepG2 [15]) [µM] |
| --- | --- | --- | --- | --- | --- | --- | --- | --- | --- | --- | --- | --- | --- | --- | --- | --- | --- | --- | --- | --- | --- | --- | --- | --- | --- | --- | --- | --- | --- | --- | --- | --- | --- | --- | --- |
| O=C(O)c1cc(-c2ccc(F)cc2F)ccc1O [diflunisal] | 0 | 0 | 0 | > 10 | > 10 | > 10 | 93.3 | 105 | 93.9 | 105 | 104 | 103 | 100 | 92.9 | 98.4 | 97.1 | 103 | 109 | 109 | 99.6 | 95.7 | – | – | – | – | – | – | – | – | – | – | – | – | – | – |
| O=c1[nH]c2ccccc2n1C1CCN(CCOc2ccccc2)CC1 [oxiperomide] | 0 | 0.7 | 0.1 | > 10 | > 10 | > 10 | 104 | 105 | 87.3 | 104 | 87.2 | 97.4 | 95.8 | 98.6 | 99.4 | 78.7 | 112 | 101 | 97.1 | 97.9 | 88.2 | 1.9 | 0 | > 10 | 104 | 112 | 95.7 | 98.1 | 64.7 | 98.9 | 108 | 100 | 99.8 | 91.6 | – |
| Cc1cnc(-c2cnc(NCCNc3ccc(C#N)cn3)nc2-c2ccc(Cl)cc2Cl)[nH]1 | 0 | 1.2 | 0 | > 10 | > 10 | > 10 | 99.5 | 105 | 95.7 | 110 | 99.6 | 101 | 100 | 94.9 | 97.6 | 76.8 | 87.6 | 107 | 99.1 | 110 | 89.7 | 0 | – | – | 104 | 99.3 | 107 | 113 | 98.4 | – | – | – | – | – | > 10 |
| COc1ccc2nc(NC(=O)Nc3ccccc3)sc2c1 [frentizole] | 1.2 | 0 | 0 | > 10 | > 10 | > 10 | 103 | 98.3 | 88 | 88.2 | 87.9 | 100 | 105 | 98.6 | 97.1 | 97.5 | 110 | 99.4 | 93.7 | 107 | 91.1 | 3.7 | 0 | > 10 | 101 | 105 | 93.8 | 89.7 | 56.8 | 95.7 | 97.2 | 97 | 95 | 95.3 | – |
| O=C(Nc1ccncc1)C(=O)c1cn(Cc2ccc(Cl)cc2)c2ccccc12 [indibulin] | 0 | 2 | 0 | > 10 | – | > 10 | 75 | 84 | 94.9 | 82.9 | 92.2 | 75.1 | 104 | 79.4 | 97.3 | 66.1 | 97.9 | 95 | 110 | 102 | 104 | 0 | 0 | > 10 | 91.6 | 107 | 94.9 | 91.3 | 94.5 | 111 | 99 | 97.2 | 95.4 | 90.9 | > 10 |
| Nc1ccc(C(=O)NCC(=O)O)cc1 [4-aminohippuric-acid] | 0.1 | 0 | 0 | > 10 | > 10 | > 10 | 97.1 | 99.7 | 100 | 89.5 | 93 | 97.5 | 99.1 | 101 | 100 | 96.2 | 106 | 91.1 | 109 | 106 | 101 | 0 | – | – | 100 | 107 | 99 | 104 | 89.8 | – | – | – | – | – | > 10 |
| C[C@H](NC(=O)Cc1cc(F)cc(F)c1)C(=O)N[C@H](C(=O)OC(C)(C)C)c1ccccc1 [DAPT] | 0 | 0 | 0 | > 10 | > 10 | > 10 | 108 | 109 | 116 | 99.8 | 96.1 | 98.3 | 108 | 103 | 105 | 102 | 105 | 100 | 112 | 91.1 | 103 | – | 0 | > 10 | – | – | – | – | – | 106 | 106 | 105 | 97.7 | 101 | – |
| N#Cc1cnc2c(Cl)cc(NCc3cn(CCN4CCCCCC4)nn3)cc2c1Nc1ccc(F)c(Cl)c1 [cot-inhibitor-1] | 1.7 | 0 | 0 | – | > 10 | > 10 | 92.1 | 99.7 | 105 | 98 | 67.8 | 94.2 | 102 | 92.2 | 96.9 | 103 | 104 | 103 | 99.5 | 96.9 | 96.2 | 0.2 | 0.7 | > 10 | 95 | 107 | 96.7 | 120 | 80.6 | 102 | 103 | 101 | 101 | 77 | > 10 |
